Here are results for nine molecules from ChEMBL document CHEMBL1154955, “Discovery of potent and selective bicyclic A(2B) adenosine receptor antagonists via bioisosteric amide replacement” (Bioorg Med Chem Lett, 2010).

Values after ≈ are worked out from the molar mass of the structure shown.

Series [1] is described as follows: Metabolic stability in rat liver microsomes assessed as turnover at 5 uM after 30 mins in absence of NADPH. The format is ADME, Microsome. The conditions noted are these: read-out: Stability.
The target in series [2] is T1, Adenosine receptor A2b (Homo sapiens, UniProt P29275).
T1 sequence (P29275 whole entry): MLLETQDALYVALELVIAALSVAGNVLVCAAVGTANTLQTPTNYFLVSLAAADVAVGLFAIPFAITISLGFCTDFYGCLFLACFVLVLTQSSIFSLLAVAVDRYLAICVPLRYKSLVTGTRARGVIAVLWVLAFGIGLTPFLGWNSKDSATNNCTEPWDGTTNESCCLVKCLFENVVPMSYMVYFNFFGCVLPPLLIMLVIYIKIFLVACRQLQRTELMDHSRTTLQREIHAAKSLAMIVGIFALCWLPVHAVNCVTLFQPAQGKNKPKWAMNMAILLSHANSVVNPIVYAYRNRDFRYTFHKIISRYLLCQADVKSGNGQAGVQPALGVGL
Put plainly: Displacement of [3H]DPCPX from human adenosine A2B receptor expressed in HEK293 cells after 60 mins by filtration binding assay. The format is cell-based.

A short description of series [3]: Apparent permeability across human Caco-2 cells at 12.5 uM. It counts as ADME, cell-based. The conditions noted are these: read-out: permeability.
Series [4] has as its target T2, Adenosine receptor A1 (Homo sapiens, UniProt P30542).
T2 sequence (P30542 whole entry): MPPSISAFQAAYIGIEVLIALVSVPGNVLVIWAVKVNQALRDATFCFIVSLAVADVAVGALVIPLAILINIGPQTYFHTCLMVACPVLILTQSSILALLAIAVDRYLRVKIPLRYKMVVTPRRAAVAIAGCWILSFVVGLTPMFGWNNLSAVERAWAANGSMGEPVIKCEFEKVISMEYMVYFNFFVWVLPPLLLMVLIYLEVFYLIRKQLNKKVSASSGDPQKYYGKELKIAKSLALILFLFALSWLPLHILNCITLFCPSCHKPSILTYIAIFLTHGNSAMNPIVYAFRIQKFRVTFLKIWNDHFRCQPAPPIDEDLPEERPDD
Description: Displacement of [3H]DPCPX from human adenosine A1 receptor expressed in CHO cells after 90 mins by filtration binding assay. The format is cell-based.

For series [5], the target named is Adenosine receptor A2a (Homo sapiens, UniProt P29274). Put plainly: Displacement of [3H]ZM241385 from human adenosine A2A receptor expressed in human HeLa cells after 1 hr by scintillation proximity assay. The format is cell-based.
Series [6] deals with T3, Adenosine receptor A3 (Homo sapiens) (UniProt P0DMS8).
T3 sequence (whole entry): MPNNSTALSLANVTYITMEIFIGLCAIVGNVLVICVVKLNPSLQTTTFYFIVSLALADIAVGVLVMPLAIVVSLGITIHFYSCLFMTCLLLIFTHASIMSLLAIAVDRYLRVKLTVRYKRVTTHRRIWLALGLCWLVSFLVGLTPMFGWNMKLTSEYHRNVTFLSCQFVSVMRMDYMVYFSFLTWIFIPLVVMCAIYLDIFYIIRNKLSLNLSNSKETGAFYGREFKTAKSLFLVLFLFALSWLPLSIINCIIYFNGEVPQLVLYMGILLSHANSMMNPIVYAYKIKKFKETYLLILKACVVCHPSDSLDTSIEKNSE
Put plainly: Inhibition of [3H]NECA binding to human adenosine A3 receptor expressed in human HeLa cells at 1 uM after 3 hrs by filtration binding assay. The format is cell-based.

Series [7] in a line: Volume of distribution at steady state in rat at 1 mg/kg, iv. It counts as ADME, organism-based. Also noted: dose 1 mg/kg, route intravenous. The conditions noted are these: in vivo, read-out: Vdss.
Series [8] can be described thus: Oral bioavailability in rat at 10 mg/kg. It counts as ADME, organism-based. The conditions noted are these: in vivo.
Series [9] is described as follows: Cmax in rat at 1 mg/kg, iv. The format is ADME, organism-based. Also noted: dose 1 mg/kg, route intravenous. The settings on record: in vivo.
Series [10] can be described thus: Thermodynamic solubility at pH 7.4. The settings on record: buffer. The format is physicochemical.
Series [11] can be described thus: AUC (0 to infinity) in rat at 1 mg/kg, iv. The format is ADME, organism-based. Also noted: time infinity, dose 1 mg/kg, route intravenous. The conditions noted are these: plasma.
A short description of series [12]: Clearance in rat at 1 mg/kg, iv. The settings on record: in vivo. On the set-up: dose 1 mg/kg, route intravenous. The format is ADME, organism-based.
Series [13] is described as follows: Terminal half life in rat at 1 mg/kg, iv. The format is ADME, organism-based. The settings on record: in vivo. Also noted: dose 1 mg/kg, route intravenous.
The target in series [14] is T4, Adenosine receptor A3 (Homo sapiens, UniProt P0DMS8).
T4 sequence (P0DMS8 whole entry): T3 sequence (whole entry)
Put plainly: Displacement of [3H]NECA from human adenosine A3 receptor expressed in human HeLa cells after 3 hrs by filtration binding assay. The format is cell-based.

Adenosine receptor A2a, sequence (P29274 whole entry): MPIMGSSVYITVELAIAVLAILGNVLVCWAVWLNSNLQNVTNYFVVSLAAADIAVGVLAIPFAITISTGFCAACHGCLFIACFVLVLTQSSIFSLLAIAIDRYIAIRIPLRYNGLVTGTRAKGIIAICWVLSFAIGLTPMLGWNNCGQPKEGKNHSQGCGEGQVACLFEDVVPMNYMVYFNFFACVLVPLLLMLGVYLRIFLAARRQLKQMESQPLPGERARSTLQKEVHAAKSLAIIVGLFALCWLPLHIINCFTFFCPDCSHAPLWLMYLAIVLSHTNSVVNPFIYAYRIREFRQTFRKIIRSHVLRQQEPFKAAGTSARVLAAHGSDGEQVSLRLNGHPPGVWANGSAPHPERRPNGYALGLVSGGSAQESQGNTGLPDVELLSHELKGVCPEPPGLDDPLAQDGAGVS

As for `Cn1c(=O)[nH]c2nc(-c3ccco3)c(-c3ccncn3)cc21`, in series [1], the metabolised at 0.5 h, 5 µM amounted to 8%. Moreover, the Ki in series [2] was determined as 11 nM; in series [4] it was 2440 nM; in series [5] it was 2130 nM. The Papp at 12.5 µM in [3] was determined as 32 ×10⁻⁶ cm/s. Further, the inhibition in series [6] came to 17%.
For `O=c1[nH]c2cc(-c3ccncn3)c(-c3ccco3)nc2[nH]1`, the metabolised at 0.5 h, 5 µM in [1] turned out to be 15%. In addition, the Vd in series [7] was found to be 1 L/kg. The molecule further had a bioavailability in [8] of 20%. In addition, the Ki was 6 nM in series [2], 317 nM in series [4] and 769 nM in series [5]. For the same molecule, in series [3], the Papp at 12.5 µM was found to be 40 ×10⁻⁶ cm/s. This molecule also displayed a Cmax in series [9] of 762 ng/mL. The solubility (thermodynamic) in series [10] is 48 µg/mL (≈ 172 µM). For the same molecule, in [6], the inhibition is 18%. In series [11], this molecule registered an AUC(0-inf) of 350 ng·h/mL. Further, in series [12], the clearance was 50 mL/min/kg. In series [13], this molecule had a half-life of 60 min.
Consider `O=c1[nH][nH]c2nc(-c3ccco3)c(-c3ccncn3)cc12`, for which the metabolised at 0.5 h, 5 µM in [1] stood at 7%. Besides, the Vd in series [7] came out at 0.6 L/kg. Also, the Ki came to 3 nM in [2], 82 nM in [4] and 177 nM in series [5]. Moreover, in [3], the Papp at 12.5 µM came to 3.5 ×10⁻⁶ cm/s. The molecule further registered a Cmax in [9] of 1330 ng/mL. Also, the inhibition in [6] is 2%. Moreover, in series [11], the AUC(0-inf) came to 504 ng·h/mL. This molecule had a clearance in series [12] of 33.3 mL/min/kg. The molecule also gave a half-life in series [13] of 24 min.
For the molecule `c1coc(-c2nc3[nH]ncc3cc2-c2ccncn2)c1`, the metabolised at 0.5 h, 5 µM in series [1] was found to be 17%. Further, the Vd in [7] is 0.8 L/kg. In addition, the Ki stood at 23 nM in [2], 478 nM in series [4] and 1660 nM in [5]. In addition, in series [3], the Papp at 12.5 µM worked out at 39 ×10⁻⁶ cm/s. Besides, in series [9], the Cmax came to 1050 ng/mL. In series [10], this molecule yielded a thermodynamic solubility of 296 µg/mL (≈ 1120 µM). This molecule yielded an inhibition in [6] of 2%. Further, the AUC(0-inf) in series [11] is 736 ng·h/mL. This molecule showed a clearance in series [12] of 23.3 mL/min/kg. In series [13], this molecule showed a half-life of 36 min.
Consider `Nc1n[nH]c2nc(-c3ccco3)c(-c3ccncn3)cc12`, for which, in series [1], the metabolised at 0.5 h, 5 µM turned out to be 6%. Further, the Vd in series [7] was determined as 3.7 L/kg. Also, the Ki in series [2] was 8 nM; in [4], 357 nM; in series [5], 858 nM. In addition, the Papp at 12.5 µM in series [3] amounted to 24 ×10⁻⁶ cm/s. For the same molecule, the peak level in series [9] (Cmax) was 397 ng/mL. Also, in series [10], the thermodynamic solubility stood at 204 µg/mL (≈ 733 µM). In series [6], this molecule yielded an inhibition of 15%. In series [11], this molecule returned an AUC(0-inf) of 164 ng·h/mL. For the same molecule, the clearance in series [12] was 102 mL/min/kg. In series [13], this molecule gave a half-life of 24 min.
Turning to `O=c1[nH]c(=O)c2cc(-c3ccncn3)c(-c3ccco3)nc2[nH]1`, the metabolised at 0.5 h, 5 µM in series [1] came out at 0%. The Ki stood at 6270 nM in series [14], 1 nM in series [2], 1730 nM in series [4] and 181 nM in series [5]. Further, the Vd in series [7] was 0.75 L/kg. The Papp at 12.5 µM in series [3] was 20 ×10⁻⁶ cm/s. Also, the peak level in [9] (Cmax) was 1680 ng/mL. In [10], this molecule displayed a solubility (thermodynamic) of 61 µg/mL (≈ 199 µM). The molecule also gave an AUC(0-inf) in [11] of 880 ng·h/mL. Also, the clearance in [12] was 20 mL/min/kg. Moreover, in series [13], the half-life is 24 min.
Regarding `c1coc(-c2nc3[nH]cnc3cc2-c2ccncn2)c1`, the metabolised at 0.5 h, 5 µM in series [1] was found to be 10%. The Ki in series [2] was 21 nM; in [4], 717 nM; in series [5], 3600 nM. Besides, the Papp at 12.5 µM in [3] stood at 23 ×10⁻⁶ cm/s. The inhibition in series [6] is 0%.
As for `O=C(Nc1ccc(-c2ccncn2)c(-c2ccco2)n1)C1CC1`, in series [3], the Papp at 12.5 µM is 45 ×10⁻⁶ cm/s.
As for `c1coc(-c2nc3[nH]ccc3cc2-c2ccncn2)c1`, the metabolised at 0.5 h, 5 µM in [1] is 88%. Besides, the Ki is 13 nM in [2], 252 nM in [4] and 619 nM in [5]. The Papp at 12.5 µM in [3] stood at 40 ×10⁻⁶ cm/s. The molecule further came in with an inhibition in series [6] of 7%.
